Measured values reported in publication PMC8843742, “Eltrombopag inhibits TET dioxygenase to contribute to hematopoietic stem cell expansion in aplastic anemia” (The Journal of Clinical Investigation, 2022).

Columns and labels:
TET1 = molecular target: T1, TET1 (Homo sapiens, UniProt Q8NFU7); experiment: 5hmC ELISA with recombinant protein; format: biochemical
T1 construct: recombinant catalytic domain (Epigentek, E12002-1)
T1 sequence (Q8NFU7 1418-2136 limits assumed): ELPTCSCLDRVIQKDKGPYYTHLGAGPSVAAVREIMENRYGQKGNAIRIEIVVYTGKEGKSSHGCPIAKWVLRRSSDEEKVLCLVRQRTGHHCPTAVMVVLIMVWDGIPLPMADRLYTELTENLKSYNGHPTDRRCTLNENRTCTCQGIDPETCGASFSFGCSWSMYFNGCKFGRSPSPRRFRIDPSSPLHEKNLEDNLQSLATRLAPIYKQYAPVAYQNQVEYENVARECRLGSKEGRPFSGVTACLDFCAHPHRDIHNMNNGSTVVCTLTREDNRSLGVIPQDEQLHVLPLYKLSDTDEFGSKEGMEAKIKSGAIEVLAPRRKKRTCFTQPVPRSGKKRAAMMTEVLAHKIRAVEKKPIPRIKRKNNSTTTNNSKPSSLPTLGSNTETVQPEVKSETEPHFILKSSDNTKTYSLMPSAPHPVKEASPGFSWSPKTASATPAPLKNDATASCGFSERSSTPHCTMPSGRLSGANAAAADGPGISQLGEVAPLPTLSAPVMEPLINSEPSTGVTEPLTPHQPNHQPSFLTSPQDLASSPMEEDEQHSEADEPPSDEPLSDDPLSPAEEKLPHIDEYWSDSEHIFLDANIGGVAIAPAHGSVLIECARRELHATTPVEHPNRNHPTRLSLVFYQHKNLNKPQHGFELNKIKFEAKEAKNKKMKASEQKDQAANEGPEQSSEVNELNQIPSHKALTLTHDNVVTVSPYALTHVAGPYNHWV

TET3 = molecular target: T2, TET3 (Homo sapiens, UniProt O43151); experiment: 5hmC ELISA with recombinant protein; format: biochemical
T2 construct: recombinant catalytic domain (BPS Bioscience, 50163)
T2 sequence (O43151 850-1795 limits assumed): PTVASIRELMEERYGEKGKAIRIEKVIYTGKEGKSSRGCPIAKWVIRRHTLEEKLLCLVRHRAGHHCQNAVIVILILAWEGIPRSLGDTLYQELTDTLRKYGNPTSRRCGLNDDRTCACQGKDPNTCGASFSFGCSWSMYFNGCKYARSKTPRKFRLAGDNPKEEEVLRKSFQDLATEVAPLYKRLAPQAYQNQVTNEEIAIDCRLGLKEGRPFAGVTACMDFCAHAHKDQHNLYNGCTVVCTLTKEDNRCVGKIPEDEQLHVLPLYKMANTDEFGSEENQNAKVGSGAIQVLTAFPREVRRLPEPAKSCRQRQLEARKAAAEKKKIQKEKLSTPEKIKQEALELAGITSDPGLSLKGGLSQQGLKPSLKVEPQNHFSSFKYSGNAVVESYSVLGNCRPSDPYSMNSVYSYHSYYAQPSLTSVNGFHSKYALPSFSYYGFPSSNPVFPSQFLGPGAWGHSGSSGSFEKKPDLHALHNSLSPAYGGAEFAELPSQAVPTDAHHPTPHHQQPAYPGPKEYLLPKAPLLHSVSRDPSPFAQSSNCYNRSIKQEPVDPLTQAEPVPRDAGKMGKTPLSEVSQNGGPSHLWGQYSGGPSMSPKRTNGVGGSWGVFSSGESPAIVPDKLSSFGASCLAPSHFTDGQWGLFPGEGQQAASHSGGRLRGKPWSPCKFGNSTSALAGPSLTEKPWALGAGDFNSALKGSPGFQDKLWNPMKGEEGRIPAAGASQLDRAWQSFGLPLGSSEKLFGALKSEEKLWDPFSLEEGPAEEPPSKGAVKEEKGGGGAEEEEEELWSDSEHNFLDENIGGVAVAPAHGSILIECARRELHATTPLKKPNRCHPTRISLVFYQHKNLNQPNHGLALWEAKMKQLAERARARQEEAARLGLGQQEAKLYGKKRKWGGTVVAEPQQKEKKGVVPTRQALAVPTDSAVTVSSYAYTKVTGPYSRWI

[1] = molecular target: T3, thrombopoietin receptor (human TPOR) (Homo sapiens, UniProt P40238); experiment: STAT5 phosphorylation Western blot in parental vs human TPOR-expressing murine cells, […]; format: cell-based
T3 construct: gene MPL; MPL open reading frame (NM_005373.2) in pCMV-3Tag-3a, expressed in BaF3 and 32D cells
T3 sequence (P40238 26-635): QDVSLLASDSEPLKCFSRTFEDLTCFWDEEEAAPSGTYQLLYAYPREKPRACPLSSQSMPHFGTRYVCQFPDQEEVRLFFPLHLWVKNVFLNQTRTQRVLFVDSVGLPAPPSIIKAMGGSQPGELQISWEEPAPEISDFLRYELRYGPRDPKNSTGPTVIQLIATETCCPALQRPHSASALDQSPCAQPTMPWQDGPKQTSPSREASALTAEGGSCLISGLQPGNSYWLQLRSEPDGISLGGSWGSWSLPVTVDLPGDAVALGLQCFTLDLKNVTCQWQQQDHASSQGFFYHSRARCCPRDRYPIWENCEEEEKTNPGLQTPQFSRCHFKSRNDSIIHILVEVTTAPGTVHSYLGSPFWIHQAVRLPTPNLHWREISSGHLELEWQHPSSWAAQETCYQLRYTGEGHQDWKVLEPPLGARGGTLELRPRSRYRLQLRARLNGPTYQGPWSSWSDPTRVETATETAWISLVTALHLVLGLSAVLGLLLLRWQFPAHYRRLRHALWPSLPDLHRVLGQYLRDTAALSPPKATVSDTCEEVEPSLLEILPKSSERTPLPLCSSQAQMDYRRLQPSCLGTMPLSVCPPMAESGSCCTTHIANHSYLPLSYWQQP

CC1=NN(c2ccc(C)c(C)c2)C(=O)/C1=N\Nc1cccc(-c2cccc(C(=O)O)c2)c1O [Epag, Eltrombopag]
IC50 (TET1): 1 ± 0.1 µM | IC50 (TET3): 1.8 ± 0.1 µM | STAT5 phosphorylation Western blot in parental vs human TPOR-expressing murine c [1]: Reconstitution of human TPOR in murine cells restored STAT5 phosphorylation without any measurable changes in the dioxygenase activity.

O=C(Nc1nc(-c2cc(Cl)cs2)c(N2CCN(C3CCCCC3)CC2)s1)c1cnc(N2CCC(C(=O)O)CC2)c(Cl)c1 [Apag, avatrombopag]
STAT5 phosphorylation Western blot in parental vs human TPOR-expressing murine c [1]: a chemically unrelated non-peptidyl TPOR agonist) all activated the JAK/STAT pathway to the same extent in these cells
